From ChEMBL document CHEMBL4000183, “Phenylpropanoids from Juglans mandshurica exhibit cytotoxicities on liver cancer cell lines through apoptosis induction” (Bioorg Med Chem Lett, 2017)
Active and inactive are the calls of the source. The rule behind the calls is not given here.

Key:
HepG2 [1] = test: Cytotoxic activity against human HepG2 cells assessed as growth inhibition after 48 hrs by MTT assay; type: functional, cell-based; settings: for IC50: Homo sapiens, HepG2, 48 h
Hep 3B2 [2] = test: Cytotoxic activity against human Hep3B cells assessed as growth inhibition after 48 hrs by MTT assay; type: functional, cell-based; settings: for IC50: Homo sapiens, Hep3B, 48 h
HepG2 [3] = test: Cytotoxic activity against human HepG2 cells assessed as growth inhibition at 100 uM after 48 hrs by MTT assay; type: functional; settings: HepG2, 48 h, read-out: GI
HepG2 [4] = test: Cytotoxic activity against human HepG2 cells assessed as growth inhibition at 50 uM after 48 hrs by MTT assay; type: functional; settings: HepG2, 48 h, read-out: GI
HepG2 [5] = test: Cytotoxic activity against human HepG2 cells assessed as growth inhibition at 25 uM after 48 hrs by MTT assay; type: functional; settings: HepG2, 48 h, read-out: GI
HepG2 [6] = test: Cytotoxic activity against human HepG2 cells assessed as growth inhibition at 12.5 uM after 48 hrs by MTT assay; type: functional; settings: HepG2, 48 h, read-out: GI
HepG2 [7] = test: Cytotoxic activity against human HepG2 cells assessed as growth inhibition at 6.25 uM after 48 hrs by MTT assay; type: functional; settings: HepG2, 48 h, read-out: GI
Hep 3B2 [8] = test: Cytotoxic activity against human Hep3B cells assessed as growth inhibition at 100 uM after 48 hrs by MTT assay; type: functional; settings: read-out: GI
Hep 3B2 [9] = test: Cytotoxic activity against human Hep3B cells assessed as growth inhibition at 50 uM after 48 hrs by MTT assay; type: functional; settings: read-out: GI
Hep 3B2 [10] = test: Cytotoxic activity against human Hep3B cells assessed as growth inhibition at 25 uM after 48 hrs by MTT assay; type: functional; settings: read-out: GI
Hep 3B2 [11] = test: Cytotoxic activity against human Hep3B cells assessed as growth inhibition at 12.5 uM after 48 hrs by MTT assay; type: functional; settings: read-out: GI
Hep 3B2 [12] = test: Cytotoxic activity against human Hep3B cells assessed as growth inhibition at 6.25 uM after 48 hrs by MTT assay; type: functional; settings: read-out: GI
HepG2 [13] = test: Induction of apoptosis in human HepG2 cells assessed as increase in cleaved-caspase 9 level at 60 uM after 48 hrs by Western blot analysis; type: functional, cell-based
HepG2 [14] = test: Induction of apoptosis in human HepG2 cells assessed as increase in cleaved-caspase 7 level at 60 uM after 48 hrs by Western blot analysis; type: functional, cell-based
HepG2 [15] = test: Induction of apoptosis in human HepG2 cells assessed as decrease in PARP level at 60 uM after 48 hrs by Western blot analysis; type: functional, cell-based
HepG2 [16] = test: Induction of apoptosis in human HepG2 cells assessed as decrease in pro-caspase 9 level at 60 uM after 48 hrs by Western blot analysis; type: functional, cell-based
HepG2 [17] = test: Induction of apoptosis in human HepG2 cells assessed as decrease in pro-caspase 7 level at 60 uM after 48 hrs by Western blot analysis; type: functional, cell-based
HepG2 [18] = test: Induction of apoptosis in human HepG2 cells assessed as decrease in Bcl-2 level at 60 uM after 48 hrs by Western blot analysis; type: functional, cell-based
HepG2 [19] = test: Induction of apoptosis in human HepG2 cells assessed as increase in Bax level at 60 uM after 48 hrs by Western blot analysis; type: functional, cell-based
HepG2 [20] = test: Induction of apoptosis in human HepG2 cells assessed as formation of apoptotic bodies at 60 uM after 48 hrs by AO staining-based phase contrast microscopic analysis; type: functional, cell-based
Hep 3B2 [21] = test: Induction of apoptosis in human Hep3B cells assessed as cell shrinkage at 70 uM after 48 hrs by AO staining-based phase contrast microscopic analysis; type: functional
HepG2 [22] = test: Induction of apoptosis in human HepG2 cells assessed as chromatin condensation at 60 uM after 48 hrs by AO staining-based phase contrast microscopic analysis; type: functional, cell-based
Hep 3B2 [23] = test: Induction of apoptosis in human Hep3B cells assessed as chromatin condensation at 70 uM after 48 hrs by AO staining-based phase contrast microscopic analysis; type: functional, cell-based
HepG2 [24] = test: Induction of apoptosis in human HepG2 cells assessed as nuclear fragmentation at 60 uM after 48 hrs by AO staining-based phase contrast microscopic analysis; type: functional, cell-based
Hep 3B2 [25] = test: Induction of apoptosis in human Hep3B cells assessed as nuclear fragmentation at 70 uM after 48 hrs by AO staining-based phase contrast microscopic analysis; type: functional, cell-based
HepG2 [26] = test: Induction of apoptosis in human HepG2 cells assessed as increase in cleaved PARP level at 60 uM after 48 hrs by Western blot analysis; type: functional, cell-based
Hep 3B2 [27] = test: Induction of apoptosis in human Hep3B cells assessed as decrease in Bcl-2 level at 70 uM after 48 hrs by Western blot analysis; type: functional, cell-based
Hep 3B2 [28] = test: Induction of apoptosis in human Hep3B cells assessed as increase in Bax level at 70 uM after 48 hrs by Western blot analysis; type: functional, cell-based
Hep 3B2 [29] = test: Induction of apoptosis in human Hep3B cells assessed as decrease in pro-caspase 7 level at 70 uM after 48 hrs by Western blot analysis; type: functional, cell-based
Hep 3B2 [30] = test: Induction of apoptosis in human Hep3B cells assessed as decrease in pro-caspase 9 level at 70 uM after 48 hrs by Western blot analysis; type: functional, cell-based
Hep 3B2 [31] = test: Induction of apoptosis in human Hep3B cells assessed as decrease in PARP level at 70 uM after 48 hrs by Western blot analysis; type: functional, cell-based
Hep 3B2 [32] = test: Induction of apoptosis in human Hep3B cells assessed as increase in cleaved-caspase 7 level at 70 uM after 48 hrs by Western blot analysis; type: functional, cell-based
Hep 3B2 [33] = test: Induction of apoptosis in human Hep3B cells assessed as increase in cleaved-caspase 9 level at 70 uM after 48 hrs by Western blot analysis; type: functional, cell-based
Hep 3B2 [34] = test: Induction of apoptosis in human Hep3B cells assessed as increase in cleaved PARP level at 70 uM after 48 hrs by Western blot analysis; type: functional, cell-based

In the case of `COC(=O)/C=C/c1ccc(OC/C=C(\C)CO)cc1`, the “growth inhibition (GI)” value (HepG2 [1]) is reported as 86.42% and the “growth inhibition (GI)” value (Hep 3B2 [2]) is reported as 26.16%.
In the case of `O=c1[nH]cc(F)c(=O)[nH]1` [FLUOROURACIL], the “growth inhibition (GI)” value (HepG2 [1]) is reported as 51.78%, the IC50 (HepG2 [1]) is reported as 32.6 to 49.7 µM and the “growth inhibition (GI)” value (Hep 3B2 [2]) is reported as 56.74%. For the same molecule, the IC50 (Hep 3B2 [2]) was 10.5 to 11.9 µM, the inhibition of growth at 100 µM (HepG2 [3]) was 51.2% and the inhibition of growth at 50 µM (HepG2 [4]) was 47.3%. The inhibition of growth at 25 µM (HepG2 [5]) was 39.2%, the inhibition of growth at 12.5 µM (HepG2 [6]) was 32.9% and the inhibition of growth at 6.25 µM (HepG2 [7]) was 19.3%. It also gave an inhibition of growth at 100 µM (Hep 3B2 [8]) of 57%, an inhibition of growth at 50 µM (Hep 3B2 [9]) of 54.5% and an inhibition of growth at 25 µM (Hep 3B2 [10]) of 51.7%. For the same molecule, the inhibition of growth at 12.5 µM (Hep 3B2 [11]) was 50.6% and the inhibition of growth at 6.25 µM (Hep 3B2 [12]) was 48.9%.
In the case of `COC(=O)/C=C/c1ccc(OCCC(C)CO)cc1` (stereo unspecified), the “growth inhibition (GI)” value (HepG2 [1]) is reported as 39.48% and the “growth inhibition (GI)” value (Hep 3B2 [2]) is reported as 14.7%.
In the case of `CC(CO)CCOc1ccc(/C=C/CO)cc1` (stereo unspecified), the “growth inhibition (GI)” value (HepG2 [1]) is reported as 9.26% and the “growth inhibition (GI)” value (Hep 3B2 [2]) is reported as 7.75%.
For `CC(CO)CCOc1ccc(/C=C/C=O)cc1` (stereo unspecified), the Activity (HepG2 [13]) was “Active”, the Activity (HepG2 [14]) was “Active” and the Activity (HepG2 [15]) was “Active”. For the same molecule, the Activity (HepG2 [16]) was “Active”, the Activity (HepG2 [17]) was “Active” and the Activity (HepG2 [18]) was “Active”. The Activity (HepG2 [19]) was “Active”, the “growth inhibition (GI)” value (HepG2 [1]) was 83.9% and the IC50 (HepG2 [1]) was 58.6 µM. The “growth inhibition (GI)” value (Hep 3B2 [2]) was 95.08%, the IC50 (Hep 3B2 [2]) was 69.9 µM and the inhibition of growth at 100 µM (HepG2 [3]) was 80%. The inhibition of growth at 50 µM (HepG2 [4]) was 57%, the inhibition of growth at 25 µM (HepG2 [5]) was 14.1% and the inhibition of growth at 12.5 µM (HepG2 [6]) was 0.24%. For the same molecule, the inhibition of growth at 6.25 µM (HepG2 [7]) was 6.6%, the inhibition of growth at 100 µM (Hep 3B2 [8]) was 85.8% and the inhibition of growth at 50 µM (Hep 3B2 [9]) was 28.9%. For the same molecule, the inhibition of growth at 25 µM (Hep 3B2 [10]) was 0.48%, the inhibition of growth at 12.5 µM (Hep 3B2 [11]) was -2.42% and the inhibition of growth at 6.25 µM (Hep 3B2 [12]) was -4.07%. The Activity (HepG2 [20]) was “Active”, the Activity (Hep 3B2 [21]) was “Active” and the Activity (HepG2 [22]) was “Active”. The Activity (Hep 3B2 [23]) was “Active”, the Activity (HepG2 [24]) was “Active” and the Activity (Hep 3B2 [25]) was “Active”. The Activity (HepG2 [26]) was “Active”, the Activity (Hep 3B2 [27]) was “Active” and the Activity (Hep 3B2 [28]) was “Active”. For the same molecule, the Activity (Hep 3B2 [29]) was “Active”, the Activity (Hep 3B2 [30]) was “Active” and the Activity (Hep 3B2 [31]) was “Active”. For the same molecule, the Activity (Hep 3B2 [32]) was “Active”, the Activity (Hep 3B2 [33]) was “Active” and the Activity (Hep 3B2 [34]) was “Active”.
